Measured values: PubChem BioAssay AID1918952 (Molecular Pharmacology Branch, DTP, NCI, 2023)
“And” between values parts separate entries of the source, which are not always exact repeats. Equal values may be shown once.

Test system: LG0703-F948-PDC complex spheroid viability
Assay: Anticancer human tumor LG0703-F948-PDC patient-derived lung adenocarcinoma cell line growth inhibition
Settings: for viability, T/C: stronger effect = lower value
Excerpt: Multicellular complex tumor spheroid response to LSD1 Inhibitor Iadademstat in combination with a variety of drugs and investigational agents in selected tumor cell lines
The current study was undertaken to assess response to LSD1 inhibitors in combination with standard-of-care drugs and investigational agents in solid tumor complex spheroid models as well as in the K-562 leukemia. Complex spheroids include a stromal component modeled by human endothelial cells (HUVEC) and fibroblasts modeled by human mesenchymal stem cells (MSCs). The concentration ranges selected for each drug and investigational agent were based upon clinically achievable concentrations if the clinical Cmax of the agent was known.
Compounds. The drugs and investigational agents used in this study are listed on Table 1. All of the agents used, including staurosporine (NSC755774) and gemcitabine (NSC613327), were obtained from the Developmental Therapeutics Program, NCI. FDA-approved anticancer drugs are available from the NCI at http://dtp.nci.nih.gov/branches/dscb/oncology_drugset_explanation.html. Drugs and investigational agents were >95% pure by proton nuclear magnetic resonance (NMR) and liquid chromatography/mass spectrometry (LC/MS). Stock solutions were prepared at 400x in DMSO, stored at -70 degrees C, and diluted in fresh medium prior to their use. The final concentration of DMSO in cell culture wells never exceeded 0.25% (v/v). The FDA-approved anticancer drug set is available from the Developmental Therapeutics Program at https://dtp.cancer.gov/organization/dscb/obtaining/available_plates.htm. All drugs and investigational agents were tested over a range starting from a high concentration at or near the clinical Cmax and decreasing in half-log increments. If the clinical Cmax for an agent had not been determined, the highest concentration tested was 10 microM.
Cell Lines. The patient-derived cancer cell (PDC) lines: 292921-168-R-J2-PDC, K24384-001-R-PDC, and 521955-158-R2-J5-PDC pancreatic carcinomas, 556581-035-R-J1 ovarian carcinoma, 324938-238-R-J1-PDC, 855422-203-R-J1-PDC and 883617-216-R-J1-PDC urothelial bladder carcinomas, 743489-274-T-PDC renal cell carcinoma, 138582-R-J1 Merkel cell tumor, K60290-347-R-J1 and K57222-313-R-J1-PDC glioblastomas, 653999-131-R-J2-PDC, LG0703-F948-PDC, and 349418-098-R-PDC non-small cell lung carcinomas, 885512-296-R-J2-PDC, 171881-019-R-J1-PDC breast carcinomas and 186277-243-T-J2-PDC and 233499-124-R-J2-PDC colon carcinomas were obtained from the NCI Patient-Derived Models Repository (PDMR, https://pdmr.cancer.gov). The established cell lines NCI/ADR-RES (RRID:CVCL_14520 and OVCAR-5 (RRID:CVCL_1628) ovarian carcinomas, 786-O (RRID:CVCL_1051) and A498 (RRID:CVCL_A498) renal cell carcinoma, NCI-H211 (ATCC, cat. CRL-5824; RRID:CVCL_1529), NCI-H196 (ATCC, cat. CRL-5823, RRID:CVCL_1509), SW 1271 (ATCC, cat. CRL-2177, RRID:CVCL_1716) and NCI-H1876 (ATCC, cat. CRL-5902, RRID:CVCL_1503) small cell lung carcinomas, MDA-MB-231 (RRID:CVCL_0062) and MDA-MB-468 (RRID:CVCL_0419)breast carcinomas (10-12). Pooled donor human umbilical vein endothelial cells (HUVEC, Lonza, cat. CC-2519) and human mesenchymal stem cells (hMSC, Lonza, cat. PT-2501) were purchased from Lonza (Walkersville, MD).
Cell Culture. All cells were maintained in an incubator at 37 degrees C and 5% CO2 with 95% humidity. The PDC lines were cultured according to standard operating procedures established by the NCI PDMR (https://pdmr.cancer.gov). Briefly all PDCs were thawed and cultured in Matrigel-coated flasks prepared with a working solution of 1X Ham's F-12 nutrient mix, without supplementation (Invitrogen, Waltham, MA, cat. 11765054), 100 U/mL penicillin-streptomycin (Invitrogen, cat. 15140122), and 2.5% Matrigel (Corning Inc., Corning, NY, cat. 354248) for the first three passages. […]
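Note: spheroids exposed to agents for seven days before readout.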
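Throughout, for viability, T/C: 100% = DMSO vehicle control wells as normalization base.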

O=C(c1cc(Cc2n[nH]c(=O)c3ccccc23)ccc1F)N1CCN(C(=O)C2CC2)CC1
viability, T/C (compound 0.0316 µM): 84.5% and 107% | viability, T/C (compound 0.1 µM): 97.1% and 103% | viability, T/C (compound 0.316 µM): 86.5% and 98.2% | viability, T/C (compound 1 µM): 93.8% and 106% | viability, T/C (compound 3.16 µM): 85.7% and 85.5% | viability, T/C (compound 10 µM): 65.5% and 74.2% | IC50 (curve of compound): > 10000 nM

Nc1ncn(C2CC(O)C(CO)S2)c(=O)n1 (configuration not stated) + NC1CCC(NC2CC2c2ccccc2)CC1
IC50 (curve of first compound, second compound 0.1 µM): > 300 nM | IC50 (curve of first compound, second compound 0.316 µM): > 300 nM | IC50 (curve of first compound, second compound 1 µM): > 300 nM | IC50 (curve of first compound, second compound 3.16 µM): > 300 nM | IC50 (curve of first compound, second compound 10 µM): > 300 nM | viability, T/C (second compound 0.1 µM, first compound 0.000949 µM): 114% | viability, T/C (second compound 0.1 µM, first compound 0.003 µM): 117% | viability, T/C (second compound 0.1 µM, first compound 0.00949 µM): 107% | viability, T/C (second compound 0.1 µM, first compound 0.03 µM): 120% | viability, T/C (second compound 0.1 µM, first compound 0.0949 µM): 113% | viability, T/C (second compound 0.1 µM, first compound 0.3 µM): 99.9% | viability, T/C (second compound 0.316 µM, first compound 0.000949 µM): 124% | viability, T/C (second compound 0.316 µM, first compound 0.003 µM): 123% | viability, T/C (second compound 0.316 µM, first compound 0.00949 µM): 121% | viability, T/C (second compound 0.316 µM, first compound 0.03 µM): 113% | viability, T/C (second compound 0.316 µM, first compound 0.0949 µM): 128% | viability, T/C (second compound 0.316 µM, first compound 0.3 µM): 99.8% | viability, T/C (second compound 1 µM, first compound 0.000949 µM): 112% | viability, T/C (second compound 1 µM, first compound 0.003 µM): 115% | viability, T/C (second compound 1 µM, first compound 0.00949 µM): 118% | viability, T/C (second compound 1 µM, first compound 0.03 µM): 122% | viability, T/C (second compound 1 µM, first compound 0.0949 µM): 123% | viability, T/C (second compound 1 µM, first compound 0.3 µM): 104% | viability, T/C (second compound 3.16 µM, first compound 0.000949 µM): 121% | viability, T/C (second compound 3.16 µM, first compound 0.003 µM): 125% | viability, T/C (second compound 3.16 µM, first compound 0.00949 µM): 115% | viability, T/C (second compound 3.16 µM, first compound 0.03 µM): 121% | viability, T/C (second compound 3.16 µM, first compound 0.0949 µM): 137% | viability, T/C (second compound 3.16 µM, first compound 0.3 µM): 119% | viability, T/C (second compound 10 µM, first compound 0.000949 µM): 116% | viability, T/C (second compound 10 µM, first compound 0.003 µM): 126% | viability, T/C (second compound 10 µM, first compound 0.00949 µM): 115% | viability, T/C (second compound 10 µM, first compound 0.03 µM): 107% | viability, T/C (second compound 10 µM, first compound 0.0949 µM): 113% | viability, T/C (second compound 10 µM, first compound 0.3 µM): 108%
